Reference: patent US20110263650A1 (priority 2007, published 2011)
Converted amounts (≈) assume the structure as drawn. Read-outs that look alike come from different tables or passages of the source.

What was measured:
[1] = tested on: KB-3-1 human cervix carcinoma (DSMZ ACC 158); experiment: Growth inhibition assay (MTT), KB-3-1; type: cell-based; settings: KB 3-1, 120 h, read-out: IC50 KB-3-1
[2] = tested on: L929 mouse fibroblasts (DSMZ ACC 2); experiment: Growth inhibition assay (MTT), L929; settings: for IC50: Mus musculus; for Cytotoxicity / activity in words: Tables 1 and 2, cell line not given
[3] = tested on: SW-480 human colon adenocarcinoma (ATCC CCL-228); experiment: Growth inhibition assay (MTT), SW-480; type: cell-based; settings: for IC50: SW480, 120 h, read-out: IC50 SW-480; for Activity in SW-480 compared with tubulysin D, in words: colon cancer cell line SW-480
[4] = L929, 120 h, read-out: IC50 L929

Structure (SMILES) | IC50 ([1]; human cervix carcinoma, MTT after 5 days) [ng/mL] | IC50 [2, 4] [ng/mL] | IC50 ([3]; human colon adenocarcinoma, MTT after 5 days) [ng/mL] | IC50 ([1]; Homo sapiens) [ng/mL] | IC50 ([3]; Homo sapiens) [ng/mL] | Cytotoxicity / activity in words [2] | Activity in SW-480 compared with tubulysin D, in words [3] | IC50 ([2]; L929, read-out: Cytotoxicity stated in text) [ng/mL] | Fold less active than tubulysin D ([2]; cytotoxicity relative to tubulysin D) [fold]
CC[C@H](C)[C@H](NC(=O)[C@H]1CCCCN1C)C(=O)N(COC(=O)CC(C)C)[C@H](C[C@@H](OC(C)=O)c1nc(C(=O)N[C@@H](Cc2ccccc2)C[C@H](C)C(=O)O)cs1)C(C)C [Analogue 1, Tubulysin D, reference compound] | 0.07 (≈ 0.0845 nM) | 0.056 (≈ 0.0676 nM) | 0.022 (≈ 0.0266 nM) | – | – | – | – | – | –
CC[C@H](C)[C@H](NC(=O)[C@H]1CCCCN1C)C(=O)N(COC(=O)CC(C)C)[C@H](C[C@@H](OC(C)=O)c1nc(C(=O)NCCc2ccccc2)cs1)C(C)C [Analogue 2, 3-methyl-butyric acid ({1-[2-acetoxy-2-(4-phenethylcarbamoylthiazol-2-yl)-ethyl]-2-methyl-propyl}-{3-methyl-2-[(1-methyl-piperidine-2-carbonyl)-amino]-pentanoyl}-amino)-methyl ester] | – | 0.24 (≈ 0.323 nM) | – | 0.25 (≈ 0.337 nM) | 0.3 (≈ 0.404 nM) | – | – | – | –
CC[C@H](C)[C@H](NC(=O)CN(C)C)C(=O)N(COC(=O)CC(C)C)[C@H](C[C@@H](OC(C)=O)c1nc(C(=O)N[C@@H](Cc2ccccc2)C[C@H](C)C(=O)O)cs1)C(C)C [Analogue 6, 4-[(2-{1-acetoxy-3-[[2-(2-dimethylamino-cetylamino)-3-methylpentanoyl]-(3-methyl-butyryloxymethyl)-amino]-4-methyl-pentyl}-thiazole-4-carbonyl)-amino]-2-methyl-5-phenyl-pentanoic acid] | – | 0.04 (≈ 0.0508 nM) | – | 0.029 (≈ 0.0368 nM) | 0.01 (≈ 0.0127 nM) | essentially equipotent with tubulysin D | more active than tubulysin D | – | –
CC[C@H](C)[C@H](NC(=O)[C@H]1CCCCN1C)C(=O)N(COC(=O)CC(C)C)[C@H](C[C@@H](OC(C)=O)c1nc(C(=O)NCCCC(=O)O)cs1)C(C)C [Analogue 3, 3-Methyl-butyric acid ((1-{2-acetoxy-2-[4-(3-carboxy-propylcarbamoyl)-thiazol-2-yl]-ethyl)-2-methyl-propyl)-{3-methyl-2-[(1-methyl-piperidine-2-carbonyl)-amino]-pentanoyl}-amino)-methyl ester] | – | 3.5 (≈ 4.83 nM) | – | 1.8 (≈ 2.49 nM) | 0.91 (≈ 1.26 nM) | – | – | – | –
CC[C@H](C)[C@H](NC(=O)[C@H]1CCCCN1C)C(=O)N(COC(=O)CC(C)C)[C@H](C[C@@H](OC(C)=O)c1nc(C(=O)NC)cs1)C(C)C [Analogue 4, 3-methyl-butyric acid ({1-[2-acetoxy-2-(4-methylcarbamoyl-thiazol-2-yl) -ethyl]-2-methyl-propyl}-{3-methyl-2-[(1-methyl-piperidine-2-carbonyl)-amino]pentanoyl}-amino)-methyl ester] | – | 0.3 (≈ 0.46 nM) | – | 0.22 (≈ 0.337 nM) | 0.35 (≈ 0.537 nM) | maintained good activity | – | – | –
CC[C@H](C)[C@H](NC(=O)[C@H]1CCCCN1C)C(=O)N(C)[C@H](C[C@@H](OC(C)=O)c1nc(C(=O)NC)cs1)C(C)C (stereo in doubt) [Analogue 11, acetic acid 4-methyl-1-(4-methylcarbamoyl-thiazol-2-yl)-3-(methyl-{3-methyl-2-[(1-methyl-piperidine-2-carbonyl)-amino]-pentanoyl}-amino)-pentyl ester] | – | 1.7 (≈ 3.08 nM) | – | 1.2 (≈ 2.17 nM) | 0.5 (≈ 0.906 nM) | – | – | 2 (≈ 3.62 nM) | –
CC[C@H](C)[C@H](N=[N+]=[N-])C(=O)N(COC(=O)CC(C)C)[C@H](C[C@@H](OC(C)=O)c1nc(C(=O)N[C@@H](Cc2ccccc2)C[C@H](C)C(=O)O)cs1)C(C)C [Analogue 8, 4-[(2-{1-acetoxy-3-[(2-azido-3-metlzyl-pentanoyl)-(3-methylbutyryloxymethyl)-amino]-4-methyl-pentyl}-thiazole-4-carbonyl)-amino]-2-methyl-5-phenyl-pentanoic acid] | – | 45 (≈ 61.7 nM) | – | 40 (≈ 54.9 nM) | 8.8 (≈ 12.1 nM) | drastic decrease in activity | – | – | –
CC[C@H](C)[C@H](NC(=O)[C@H]1CCCCN1C)C(=O)N(C)[C@H](C[C@@H](OC(C)=O)c1nc(C(=O)N[C@@H](Cc2ccccc2)C[C@H](C)C(=O)O)cs1)C(C)C (stereo in doubt) [Analogue 10, 4-({2-[1-Acetoxy-4-methyl-3-(methyl-{3-methyl-2-[(1-methylpiperidine-2-carbonyl)-amino]-pentanoyl}-amino)-pentyl]-thiazole-4-carbonyl}-amino)-2-methyl-5-phenyl-pentanoic acid] | – | 0.23 (≈ 0.316 nM) | – | 0.13 (≈ 0.179 nM) | 0.016 (≈ 0.022 nM) | – | more active than tubulysin D | – | 4
CC[C@H](C)[C@H](NC(=O)[C@H]1CCCCN1C)C(=O)N(COC(=O)CC(C)C)[C@H](C[C@@H](OC(C)=O)c1nc(C(=O)O)cs1)C(C)C [Analogue 5, 2-[1-acetoxy-4-methyl-3-((3-methyl-butyryloxymethyl)-{3-methyl-2-[(1-methyl-piperidine-2-carbonyl)-amino]-pentanoyl}-amino)-pentyl]-thiazole-4-carboxylic acid] | – | 2.2 (≈ 3.44 nM) | – | 1.5 (≈ 2.35 nM) | 0.35 (≈ 0.548 nM) | maintained good activity | – | – | –
CC[C@H](C)[C@H](NC(C)=O)C(=O)N(COC(=O)CC(C)C)[C@H](C[C@@H](OC(C)=O)c1nc(C(=O)N[C@@H](Cc2ccccc2)C[C@H](C)C(=O)O)cs1)C(C)C [Analogue 7, 4-[(2-{1-acetoxy-3-[(2-acetylamino-3-methyl-pentanoyl)-(3-methyl-butyryloxymethyl)-amino]-4-methyl-pentyl}-thiazole-4-carbonyl)-amino]-2-methyl-5-phenyl-pentanoic acid] | – | 120 (≈ 161 nM) | – | 80 (≈ 107 nM) | 15 (≈ 20.1 nM) | drastic decrease in activity | – | – | –
